Like-named read-outs stand apart in the source and are kept apart here. Marks after values point to notes of the source that are not given here.
What was measured:
DmOr22a/Orco = biological target: T1, DmOr22a/Orco (Drosophila melanogaster, UniProt P81909); conditions: cited from earlier work; for Sensitivity limit (Log): given as Log, estimated visually from graph
T1 sequence (P81909 1-397): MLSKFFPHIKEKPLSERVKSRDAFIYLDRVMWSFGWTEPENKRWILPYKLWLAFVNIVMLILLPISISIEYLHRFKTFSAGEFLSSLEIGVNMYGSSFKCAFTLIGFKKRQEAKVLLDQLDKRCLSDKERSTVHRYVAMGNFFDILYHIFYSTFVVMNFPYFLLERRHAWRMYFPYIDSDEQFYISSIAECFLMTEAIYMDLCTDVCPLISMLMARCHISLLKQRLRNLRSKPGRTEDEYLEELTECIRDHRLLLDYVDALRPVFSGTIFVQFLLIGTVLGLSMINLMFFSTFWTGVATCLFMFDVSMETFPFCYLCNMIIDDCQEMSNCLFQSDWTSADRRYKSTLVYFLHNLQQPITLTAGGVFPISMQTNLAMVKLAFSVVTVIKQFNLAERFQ
T1 sequence (Q9VNB5 1-486 partner): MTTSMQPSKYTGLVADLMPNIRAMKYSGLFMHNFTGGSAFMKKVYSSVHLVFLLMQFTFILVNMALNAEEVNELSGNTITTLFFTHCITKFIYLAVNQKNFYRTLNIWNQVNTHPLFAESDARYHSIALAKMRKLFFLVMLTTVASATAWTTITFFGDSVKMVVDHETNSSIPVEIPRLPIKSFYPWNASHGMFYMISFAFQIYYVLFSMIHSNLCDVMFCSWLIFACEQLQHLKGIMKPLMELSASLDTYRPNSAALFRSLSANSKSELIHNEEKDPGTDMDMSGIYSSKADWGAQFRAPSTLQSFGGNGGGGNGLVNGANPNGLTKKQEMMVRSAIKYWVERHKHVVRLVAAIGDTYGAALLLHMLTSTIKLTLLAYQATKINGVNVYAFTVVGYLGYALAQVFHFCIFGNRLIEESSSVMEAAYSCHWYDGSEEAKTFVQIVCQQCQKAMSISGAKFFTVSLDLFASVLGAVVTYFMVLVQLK

Or10a = biological target: T2, Or10a (Drosophila melanogaster, UniProt Q9VYZ1); experiment: EIS sensor, Or10a liposomes on gold electrode (Example 1); assay type: binding; conditions: Or10a liposomes, EIS
T2 sequence (Q9VYZ1 1-406): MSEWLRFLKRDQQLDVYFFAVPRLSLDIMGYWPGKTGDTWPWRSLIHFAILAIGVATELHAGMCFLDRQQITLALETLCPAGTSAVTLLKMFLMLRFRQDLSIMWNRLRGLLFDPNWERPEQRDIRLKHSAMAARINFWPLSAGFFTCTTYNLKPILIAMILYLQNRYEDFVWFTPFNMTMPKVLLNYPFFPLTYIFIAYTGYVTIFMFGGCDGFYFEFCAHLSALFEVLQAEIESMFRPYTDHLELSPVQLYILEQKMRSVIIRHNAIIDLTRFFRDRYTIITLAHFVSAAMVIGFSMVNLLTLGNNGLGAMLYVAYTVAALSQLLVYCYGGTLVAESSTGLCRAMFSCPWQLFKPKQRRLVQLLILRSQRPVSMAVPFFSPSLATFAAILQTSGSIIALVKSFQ
Experimental: Liposomes were prepared using a phospholipid solution produced by evaporating solutions containing: phosphatidylethanolamine (PE), phosphatidylserine (PS), phosphatidylcholine (PC), and cholesterol (CH) at a molar ratio of 5:3:3:1 in a small glass tube under a stream of N2 gas, then desiccating under vacuum for 1 h. […] To promote the formation of liposomes, 10 freeze/thaw steps were performed by transferring the tube from liquid nitrogen to a 40° C. water bath. Liposomes were then sized by passing the lipid solution 11 times through a 100-nm polycarbonate membrane using an Avestin LiposoFAST extruder unit (Avestin, Germany). Glycerol was added at 10% of the final volume and aliquots at 10 mg/mL were snap frozen in liquid nitrogen and stored at -80° C. Prior to their use, liposomes were defrosted on ice and then destabilized by incubating with 0.2% CHAPS for 15 min at room temperature. Then 200 μg of purified odorant receptor^14 was added to 1 mg of liposomes and rotated at 10 rpm for 1 h at room temperature. […] The Bio-Beads were removed after each incubation period. The OR integrated liposomes were pelleted by centrifugation at 100,000 g for 1 h, and were resuspended in 500 μL of rehydration buffer. Integration of OrXs into liposomes was assessed by density gradient ultracentrifugation (DGU) using Accudenz (Accurate Chemical & Scientific Corporation, USA). […] The sample was then centrifuged at 100,000 g for 4 h at 4° C. Liposomes will float to the top of the gradient after Accudenz DGU due to their low density. 1.3 Electrode Cleaning Gold disk (2 mm) electrodes were cleaned with polishing with Alumina paste for 2 minutes, ultra-sonicated in pure ethanol and then Milli-Q water for 5 minutes each. […] Charge transfer resistance (Rct) of electrodes were calculated by fitting obtained data to a Randles' equivalent circuit [Rs+CPE/(Rct+W)] comprising of a solution resistance (Rs) in series with a constant phase element (CPE) and in parallel with charge transfer resistance (Rct) and Warburg diffusion element. […]

Structure (SMILES): CCCCCC(=O)OC [methyl hexanoate]
- Sensitivity limit (Log) (DmOr22a/Orco; ref 23): Log = −7.5*
- EC50 (DmOr22a/Orco; ref 24): 1170 nM
- Sensitivity limit (Log) (DmOr22a/Orco; ref 24): Log = −7*

Structure (SMILES): COC(=O)c1ccccc1O [methyl salicylate]
- EC50 (Or10a): ~1 nM
- Sensitivity limit (lowest detectable concentration) (Or10a; signal/noise >3): 330 pM
